Measured values reported in US12715844B2, “Compound, preparation method therefor, composition, kit and use thereof” (SIGNDO BIOTECHNOLOGY (SUZHOU) CO., LTD, priority 2023, dated 2026).

What was measured:
PSMA receptor = biological target: T1, PSMA receptor (Homo sapiens, UniProt Q04609); test: Receptor binding detected by flow cytometry in vitro (competitive binding with DUPA-FITC); conditions: 22RV1 (PSMA+) cells, competition with 100 nmol/L DUPA-FITC
T1 construct: endogenous in cells; host or cells: 22RV1 (PSMA+); PC3 (PSMA−) as negative control
T1 sequence (Q04609 whole entry): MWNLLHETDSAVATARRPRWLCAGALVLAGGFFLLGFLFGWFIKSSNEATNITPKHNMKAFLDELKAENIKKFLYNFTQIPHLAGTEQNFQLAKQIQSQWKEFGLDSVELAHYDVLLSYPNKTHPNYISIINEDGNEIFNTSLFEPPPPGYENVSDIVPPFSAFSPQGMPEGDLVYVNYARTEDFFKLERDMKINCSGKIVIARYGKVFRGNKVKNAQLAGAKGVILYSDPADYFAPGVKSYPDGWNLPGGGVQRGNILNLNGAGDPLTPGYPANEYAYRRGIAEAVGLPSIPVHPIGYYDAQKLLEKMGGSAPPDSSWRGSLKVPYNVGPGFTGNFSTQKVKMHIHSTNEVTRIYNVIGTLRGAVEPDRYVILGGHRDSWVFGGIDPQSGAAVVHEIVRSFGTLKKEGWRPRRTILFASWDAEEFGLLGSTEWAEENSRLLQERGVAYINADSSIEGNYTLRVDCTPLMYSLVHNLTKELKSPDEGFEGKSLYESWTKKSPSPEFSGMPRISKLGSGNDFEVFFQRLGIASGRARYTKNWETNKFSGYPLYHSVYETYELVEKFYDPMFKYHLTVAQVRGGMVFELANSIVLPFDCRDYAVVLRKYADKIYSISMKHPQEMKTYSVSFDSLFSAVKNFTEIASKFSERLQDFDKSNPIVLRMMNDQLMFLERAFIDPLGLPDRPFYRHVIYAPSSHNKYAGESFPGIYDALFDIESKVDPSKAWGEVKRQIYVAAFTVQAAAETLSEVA
Description: 1. Receptor Binding was Detected by Flow Cytometry In Vitro:
Prostate-specific membrane antigen (PSMA) is overexpressed on prostate cancer cells. Both DUPA-FITC and DGPR1008 are capable of targeting the PSMA receptor in prostate cancer cells, with the difference being that DUPA-FITC is connected to a visible light dye (Ex=495 nm, Em=520 nm), whereas DGPR1008 is connected to a near-infrared dye (Ex=776 nm, Em=793 nm). Since the majority types of lasers equipped in flow cytometers operate within the visible light spectrum, the binding affinity of DGPR1008 to the receptor can not be directly measured. Therefore, the competitive binding of DGPR1008 with DUPA-FITC to PSMA is employed to indirectly assess the binding affinity of the test compound to the receptor.
DGPR1008, DUPA-FITC, 22RV1 (PSMA+), PC3 (PSMA−), 1640 culture medium, FBS, double antibiotics, trypsin, centrifuge, 4° C. constant temperature incubator, flow cytometer.
Drug preparation: 100 nmol/L DUPA-FITC was prepared using culture medium. The test compound was diluted to nine concentrations (0.00098 μM, 0.002 μM, 0.008 μM, 0.01 μM, 0.03 μM, 0.05 μM, 0.09 μM, 0.1 μM, and 0.125 μM) using culture medium containing 100 nmol/L DUPA-FITC, with three replicate wells for each concentration.
Cell culture: The cells were seeded in T75 culture flasks. After 48 h, cells in the logarithmic growth phase were taken, digested with trypsin for 1-2 min, and the digestion was then terminated by adding fresh culture medium. After cell counting, the cells were transferred into a 96-well plate (1×10^5 cells/well), totaling 27 wells. The culture medium was discarded by centrifugation (800 rpm, 5 min), and the cells were washed twice with PBS and then centrifuged to collect the cell pellet. The prepared culture media with 9 concentrations were added to the cell-containing wells, with three replicates for each concentration. The cells were incubated at 4° C. in the dark for 30 min, and then the culture medium in the wells was discarded. Cells were washed by adding 300 μL of fresh culture medium (twice) and saline (once) to each well, followed by resuspension in 300 μL of saline for flow cytometry detection.

22RV1 (PSMA+) [1] = test: Drug efficacy validation by in vivo live imaging, three dose groups; design: species or system mice
Description: (§1) “V” denotes the volume-to-mass ratio. […] Mice refer to BALB/c nude mice, 6-8 weeks old, weighing 18-20 g; rats refer to SD rats: 8 weeks old, approximately 250 g.
2. Drug Efficacy Validation Experiment Using In Vivo Live Imaging
Prostate-specific membrane antigen (PSMA) is overexpressed on prostate cancer cells. The test compound is a PSMA-targeting molecule conjugated with a near-infrared region I dye. The test compound can bind to PSMA and “illuminate” cancer cells upon excitation by a near-infrared light source. In this experiment, the in vivo tissue distribution of the test compound in mice is detected using in vivo live imaging.
DGPR1008, 22RV1 (PSMA+), PC3 (PSMA−), 1640 culture medium, FBS, double antibodies, trypsin, Matrigel (BD), vernier caliper, centrifuge, IVIS live imager.
Matrigel was thawed on ice in advance, and the culture medium was pre-cooled on ice. After centrifugation, the cells were resuspended in the pre-cooled culture medium, followed by the addition of HC Matrigel gel in a volume equal to the culture medium. The centrifuge tube containing the cells was placed on ice and transferred to the animal facility. The cells were thoroughly dispersed before inoculation. The right dorsal shoulder area of the mice was disinfected with an alcohol cotton ball, and a single intravenous administration was performed with an inoculation volume of 200 μL per mouse. All operations were performed on ice. When the tumor volume reached 300-400 mm^3, the mice were grouped for administration. Nine mice with well-grown and regularly shaped tumors were selected into the group. The nine mice were randomly divided into three groups: G1 (25 nmol/mouse), G2 (50 nmol/mouse), and G3 (100 nmol/mouse), with three mice in each group. The scanning time: 1, 2, 4, 8, 24, and 48 h.

22RV1 (PSMA+) [2] = test: In vivo live imaging comparison with the existing product OTL78; design: species or system mice
Description: as §1
3. Comparison with the Existing Product OTL78
(§2) The Prostate-specific membrane antigen (PSMA) is overexpressed on prostate cancer cells. The test compound is a PSMA-targeting molecule conjugated with a near-infrared region I dye. The test compound can bind to PSMA and “illuminate” cancer cells upon excitation by a near-infrared light source. In this experiment, the in vivo and ex vivo tissue distribution of the test compound in mice is detected using in vivo live imaging.
DGPR1008, 22RV1 (PSMA+), BALB/c nude mouse, 1640 culture medium, FBS, double antibodies, trypsin, Matrigel (BD), vernier caliper, centrifuge, IVIS live imager.
(§3) Matrigel was thawed on ice in advance, and the culture medium was pre-cooled on ice. After centrifugation, the cells were resuspended in the pre-cooled culture medium, followed by the addition of HC Matrigel gel in a volume equal to the culture medium. The centrifuge tube containing the cells was placed on ice and transferred to the animal facility. The cells were thoroughly dispersed before inoculation. The back of the neck was disinfected with an alcohol cotton ball, and a single intravenous administration was performed with an inoculation volume of 200 μL per mouse. All operations were performed on ice. When the tumor volume reached 300-400 mm^3, the mice were grouped for administration. Six mice with well-grown and regularly shaped tumors were selected into the group. The six mice were randomly divided into two groups: G1 (OTL78 10 nmol/mouse) and G2 (DGPR1008 10 nmol/mouse) with three mice in each group. The scanning time: 1, 2, 4, 8, 24, and 72 h.
(1) Results and Data of In Vivo Live Imaging of Drug Efficacy (Mice were Used as Experimental Subjects in this Part)

22RV1 (PSMA+) [3] = test: 2-hour ex vivo tissue distribution: fluorescence of tumor and in situ normal prostate; design: species or system mice; conditions: relative to OTL78
Description: as §2, §3
(2) Results of 2-Hour Ex Vivo Tissue Distribution: Fluorescence Ratio of Tumor to In Situ Normal Prostate: […]

[4] = Pharmacokinetic parameters in rat plasma; format: in vivo; conditions: compared with OTL78
[5] = Acute toxicity experiment on rats; conditions: three dose groups of high, medium and low doses

CC1(C)C(=CC=C2CCCC(C=CC3=[N+](CCCCS(=O)(=O)[O-])c4ccc(S(=O)(=O)[O-])cc4C3(C)C)=C2Oc2ccc(CC(NC(=O)CCOCCCOCCCCCOCCOCCNC(=O)CCC(NC(=O)NC(CCC(=O)[O-])C(=O)[O-])C(=O)[O-])C(=O)[O-])cc2)N(CCCCS(=O)(=O)[O-])c2ccc(S(=O)(=O)[O-])cc21.[Na+].[Na+].[Na+].[Na+].[Na+].[Na+].[Na+] (stereo not drawn) [Example 51]
binding affinity to PSMA receptor (PSMA receptor): good affinity
targeting properties (22RV1 (PSMA+) [1]; 22RV1 tumor mice, in vivo live imaging): good targeting properties
enrichment in the prostate cancer tumor site (22RV1 (PSMA+) [1]; high, medium and low doses (25, 50, 100 nmol/mouse), scans 1-48 h): enriched in the prostate cancer tumor site
TBR (tumor-to-background ratio), in words (22RV1 (PSMA+) [2]; from about 2 h to 72 h): good TBR
fluorescence value at the tumor site compared with OTL78 (22RV1 (PSMA+) [2]; mice, each time point): greater fluorescence values at the tumor site than OTL78
TBR compared with OTL78 (22RV1 (PSMA+) [2]; relative to OTL78): higher TBR
discrimination capability (tumor vs normal prostate) compared with OTL78 (22RV1 (PSMA+) [3]): approximately 5 fold
clearance in rats in vivo, in words [4]: cleared more rapidly
toxic reactions in acute toxicity experiment [5]: no toxic reactions were observed
